These results are taken from ChEMBL document CHEMBL1150507, “New hydroxy-amido-anthraquinones as potential antineoplastic drugs” (1992).

The test system of assay [1] is HeLa. In words: Compound was tested for tumor cell growth inhibition against HeLa cell line. The class given is functional. Particulars: Homo sapiens, read-out: ID50 (the source's name).
In assay [2] the test system is HL-60. In words: Compound was tested for tumor cell growth inhibition against HL 60 cell line. The class given is functional. To be noted: Homo sapiens, read-out: ID50 (the source's name).

As for `CCN(CC)CCC(=O)Nc1ccc(O)c2c1C(=O)c1c(O)ccc(O)c1C2=O`, the IC50 stood at 8050 nM in assay [1] and 110 nM in assay [2].

With `CCN(CC)CC(=O)Nc1ccc(O)c2c1C(=O)c1c(O)ccc(O)c1C2=O`, the IC50 in assay [1] was 26100 nM; in assay [2], 1640 nM.

Take `CCN(CC)CCC(=O)Nc1ccc(NC(=O)CCN(CC)CC)c2c1C(=O)c1c(O)ccc(O)c1C2=O`: the IC50 was found to be 3140 nM in assay [1] and 100 nM in assay [2].

As for `CCN(CC)CC(=O)Nc1ccc(NC(=O)CN(CC)CC)c2c1C(=O)c1c(O)ccc(O)c1C2=O`, the figures for the IC50 in assay [1] and in assay [2] were over 38000 nM and 4900 nM, respectively.

Regarding `O=C1c2c(O)ccc(O)c2C(=O)c2c(NCCNCCO)ccc(NCCNCCO)c21` [MITOXANTRONE], the IC50 in assay [1] was found to be 2770 nM; in assay [2] it was 90 nM.
